According to patent US12102432B2, “Uses of transdermal glomerular filtration rate measurement in continuous renal replacement therapy” (MediBeacon Inc., priority 2018, dated 2024):

Tests used:
[1] = In vivo clearance by CVVHD in porcine model with bilateral nephrectomy; parameters: species or system Swine
[2] = In vitro continuous hemodialysis (CVVHD) model, saturation coefficient; type: in vitro ADME, bovine; conditions: for Saturation coefficient (mean ± SD): blood flow 200 mL/min
Procedure: For CVVHD experiments, the CLTM was assessed using a previously validated in vitro CVVHD model as illustrated in FIG. 6. Commonly used effluent flow rates of 16, 33, 50, and 100 mL/min, and a blood flow rate of 200 mL/min were used. Effluent was prepared according to directions from the manufacturer by mixing sodium bicarbonate powder (NATURALYTE® 4000, Fresenius Medical Care, Waltham, Mass., USA) with distilled water in a 45:1 ratio. After adding MB-102 and urea to the blood, it was recirculated through the circuit for 5 min for uniform coating of the extracorporeal circuit. A single-pass mode of the CVVHD procedure with four different flow rates was run in random order for each hemodiafilter. Blood samples were collected from the pre- and post-filter ports, and spent effluent samples were taken from the effluent port 5 min after initiation of the CVVHD experiments at all four effluent flow rates. These experiments were conducted on 6 new hemodiafilters and CRRT tubing sets. Saturation coefficient (SA) and CLTM were calculated as follows:
[formula] CLdiff=(SA×Qd) Equation (6)
where SA is the saturation coefficient; CUF is the concentration in the effluent; Ca is the concentration of the solute in the pre-filter; CV is the concentration of the solute in the post-filter; CLdiff is the diffusion clearance for post-filter replacement; Qd is the effluent flow rate.
(§1) All blood samples were collected and centrifuged at 3000 rpm for 10 minutes. The plasma and effluent samples were transferred to cryovials in duplicate and stored at −80° C. until analysis. BUN concentrations were analyzed with Advia 1800 (Siemens Healthcare Diagnostic Inc., Tarrytown, N.Y., USA) having a lower limit of quantification of 5 mg/dL.
(§2) Similarly, six CVVH and CVVHD experiments with each hemodiafilter were used to detect a 25% difference in MB-102 CLTM between hemodiafilters. Assumptions used in these calculations included: a power of 90% and a standard deviation of 10% with a significance level of p<0.05. A two-tailed, unpaired t-test was used to compare differences between the two hemodiafilters, and the analysis of variance was used to compare different QUF and Qd within each hemodiafilter type.

[3] = In vitro continuous hemofiltration (CVVH) model, sieving coefficient; type: in vitro ADME, bovine; conditions: for Mean sieving coefficient: CVVH
Procedure: The procedure for the CVVH study was conducted using the model CVVH system illustrated in FIG. 5. The CLTM of urea and MB-102 were evaluated with different blood flow rates, ultrafiltration rate (Quf) and hemodiafilters (Table 1). In a closed-loop system, the formed effluent was returned to the blood as a post-filter replacement fluid downstream from the post-hemodiafilter blood sampling port. Pre- and post-hemodiafilter blood samples, and effluent samples were collected concurrently. Six experiments were conducted for each hemodiafilter, and new hemodiafilters and CRRT apparatus were used for each experiment. Sieving coefficient (SC) and CLTM were calculated as follows:
[formula] where Sc is the sieving coefficient; Cuf is the concentration in the effluent; Ca is the concentration of the solute in the pre-filter; and Cv is the concentration of the solute in the post-filter. CLconv=SC×QUF Equation (4) wherein CLconv is the convective clearance for the post-filter replacement; QUF is the ultrafiltration rate.
as §1, §2

[4] = stated as pharmacokinetic parameter, no test described; cited from earlier work
[5] = assembly on chest (QLS26), blood flow rate 100, effluent flow rate 20 mL/min, 1st of four regions
[6] = assembly on chest (QLS26), blood flow rate 200, effluent flow rate 35 mL/min, 2nd of four regions
[7] = assembly on chest (QLS26), blood flow rate 200, effluent flow rate 35 mL/min, 4th of four regions
[8] = assembly on sternum (QLS25), blood flow rate 100, effluent flow rate 20 mL/min, 1st of four regions
[9] = assembly on sternum (QLS25), blood flow rate 100, effluent flow rate 20 mL/min, 3rd of four regions
[10] = assembly on sternum (QLS25), blood flow rate 200, effluent flow rate 35 mL/min, 2nd of four regions
[11] = assembly on sternum (QLS25), blood flow rate 200, effluent flow rate 35 mL/min, 4th of four regions

MB-102 Clearance Rate Constant [1, 5]: 0.1439 h⁻¹
RDTC [1, 5]: 6.94 h
RDTC ([1]; assembly on chest (QLS26), blood flow rate 100, effluent flow rate 20 mL/min, 3rd of four regions): 11.87 h
MB-102 Clearance Rate Constant [1, 6]: 0.1769 h⁻¹
RDTC [1, 6]: 5.65 h
MB-102 Clearance Rate Constant [1, 7]: 0.1192 h⁻¹
RDTC [1, 7]: 8.39 h
MB-102 Clearance Rate Constant [1, 8]: 0.1174 h⁻¹
RDTC [1, 8]: 8.52 h
MB-102 Clearance Rate Constant [1, 9]: 0.0871 h⁻¹
RDTC [1, 9]: 11.48 h
MB-102 Clearance Rate Constant [1, 10]: 0.1870 h⁻¹
RDTC [1, 10]: 5.35 h
MB-102 Clearance Rate Constant [1, 11]: 0.1288 h⁻¹
RDTC [1, 11]: 7.76 h
Saturation coefficient (mean ± SD) ([2]; CVVHD, HF1400, Qd 16.7 mL/min): 1.27 ± 0.07
Saturation coefficient (mean ± SD) ([2]; CVVHD, HF1400, Qd 33.3 mL/min): 1.27 ± 0.09
Saturation coefficient (mean ± SD) ([2]; CVVHD, HF1400, Qd 50 mL/min): 1.37 ± 0.07
Saturation coefficient (mean ± SD) ([2]; CVVHD, HF1400, Qd 100 mL/min): 1.02 ± 0.20
Saturation coefficient (mean ± SD) ([2]; CVVHD, M150, Qd 16.7 mL/min): 1.06 ± 0.17
Saturation coefficient (mean ± SD) ([2]; CVVHD, M150, Qd 33.3 mL/min): 1.11 ± 0.06
Saturation coefficient (mean ± SD) ([2]; CVVHD, M150, Qd 50 mL/min): 1.60 ± 0.06
Saturation coefficient (mean ± SD) ([2]; CVVHD, M150, Qd 100 mL/min): 0.84 ± 0.04
Saturation coefficient (SA), overall summary in text ([2]; CVVHD, both hemodiafilters): approximately 1
mean SA values ([2]; low effluent flow rates (16-50 mL/min)): approximately unity
Mean sieving coefficient ([3]; HF1400, ultrafiltration rate 16.7 mL/min): 1.14 ± 0.06
Mean sieving coefficient ([3]; HF1400, ultrafiltration rate 33.3 mL/min): 1.17 ± 0.03
Mean sieving coefficient ([3]; HF1400, ultrafiltration rate 50 mL/min): 1.18 ± 0.05
Mean sieving coefficient ([3]; M150, ultrafiltration rate 16.7 mL/min): 1.17 ± 0.12
Mean sieving coefficient ([3]; M150, ultrafiltration rate 33.3 mL/min): 1.17 ± 0.07
Mean sieving coefficient ([3]; M150, ultrafiltration rate 50 mL/min): 1.16 ± 0.07
Sieving coefficient (SC) ([3]; three different Quf, both hemodiafilters): approximately 1
SMILES: Nc1nc(C(=O)N[C@H](CO)C(=O)O)c(N)nc1C(=O)N[C@H](CO)C(=O)O [MB-102, (2R,2′R)-2,2′-((3,6-diaminopyrazine-2,5-dicarbonyl)bis(azanediyl))bis(3-hydroxypropanoic acid)]
protein binding [4]: 0%
